Marks after values point to notes of the source that are not given here.
What was measured:
Type in all cases: cell-based
[1] = system: A. actinomycetemcomitans; assay: Multi-species biofilm composition, absolute abundance (Geq/mL); settings: repeated rinsing
[2] = system: A. naeslundii; assay: as above; settings: repeated rinsing
In short: (§1)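 CAD-HA disks, Amsterdam Active Adhesion model; biofilms established 24 h (37° C., 170 rpm, microaerophilic: 6% O2, 7% CO2, 7% H2, 80% N2). Then rinsed 3×/day, 3 min (RT, 250 rpm), 3 days, with substrate at 1 M; PBS (pH 5.7) without substrate as control. Values mean ± SD (n = 3) log(Geq/mL).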

[3] = system: P. gingivalis; assay: as above; settings: repeated rinsing
In short: as §1

[4] = system: P. intermedia; assay: as above; settings: repeated rinsing
In short: as §1

[5] = system: S. gordonii; assay: as above; settings: repeated rinsing
In short: as §1

[6] = system: S. mitis; assay: as above; settings: repeated rinsing
[7] = system: S. oralis; assay: as above; settings: repeated rinsing
In short: as §1

[8] = system: S. sobrinus; assay: as above; settings: repeated rinsing
In short: as §1

[9] = system: multi-species biofilms; assay: Organic acid levels in supernatant of multi-species biofilms (ion chromatography); settings: >0 production, <0 consumption, n = 3
In short: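 Biofilms grown 24 h on calcium-deficient hydroxyapatite disks (Amsterdam Active Adhesion model, 37° C., microaerophilic), then rinsed in substrate solution 3 min, three times daily for 3 days; PBS pH 5.7 without substrate as negative control. Organic acids in filter-sterilized supernatant quantified by ion chromatography.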

[10] = system: A. actinomycetemcomitans virulence genes; assay: Virulence gene expression in multi-species biofilm (SYBR RT-qPCR)
In short: (§2)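 Multi-species biofilms on hydroxyapatite disks were grown 24 h under microaerophilic conditions at 37 °C, then rinsed three times daily for 3 min over 3 days with substrate in PBS at 1 M or 1% (w/v); PBS pH 5.7 served as control. Virulence gene expression was measured by SYBR RT-qPCR normalized to housekeeping genes, giving 2^-ΔΔCt fold change versus control as geometric mean (n = 3).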

[11] = system: P. gingivalis virulence genes; assay: as above; settings: relative to control, 2^-ΔΔCt, n = 3
In short: as §2

[12] = system: F. nucleatum virulence genes; assay: as above; settings: relative to control = 1, 2^-ΔΔCt, n = 3
In short: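 Multi-species biofilms on CAD-HA disks (Amsterdam Active Adhesion model) established 24 h at 37° C. under microaerophilic conditions, then rinsed 3 min three times daily for 3 days with substrate (1 M or 1% (w/v) in PBS); PBS pH 5.7 control. 33 virulence genes from 4 periodontal pathogens quantified by SYBR RT-qPCR, housekeeping-normalized; fold change by 2^-ΔΔCt, geometric mean (n = 3).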

[13] = substrate 1 M, listed as α-D-lactose
[14] = lower part of Table 6a, substrate 1%(w/v), relative to control = 1
[15] = substrate 1 M, relative to control = 1, 2^-ΔΔCt, n = 3

OC[C@H]1O[C@@H](O[C@H]2[C@H](O)[C@@H](O)[C@@H](O)O[C@@H]2CO)[C@H](O)[C@@H](O)[C@H]1O [D-lactose, α-D-lactose]
absolute abundance of A. actinomycetemcomitans (Aa), mean ± SD log (Geq/mL) ([1]; substrate 1% (w/v)): 9.44 ± 0.41 log (Geq/mL)
absolute abundance of A. actinomycetemcomitans (Aa), mean ± SD log (Geq/mL) ([1]; substrate 1 M in PBS, n = 3): 7.87 ± 0.04^∗ log (Geq/mL)
absolute abundance of A. naeslundii (An), mean ± SD log (Geq/mL) ([2]; substrate 1% (w/v)): 7.75 ± 0.24 log (Geq/mL)
absolute abundance of A. naeslundii (An), mean ± SD log (Geq/mL) ([2]; substrate 1 M in PBS, n = 3): 4.86 ± 0.19^∗ log (Geq/mL)
absolute abundance of P. gingivalis (Pg), mean ± SD log (Geq/mL) ([3]; substrate 1% (w/v)): 6.93 ± 0.10 log (Geq/mL)
absolute abundance of P. gingivalis (Pg), mean ± SD log (Geq/mL) ([3]; substrate 1 M in PBS, n = 3): 4.26 ± 0.51^∗ log (Geq/mL)
absolute abundance of P. intermedia (Pi), mean ± SD log (Geq/mL) ([4]; substrate 1% (w/v)): 8.13 ± 0.25 log (Geq/mL)
absolute abundance of P. intermedia (Pi), mean ± SD log (Geq/mL) ([4]; substrate 1 M in PBS, n = 3): 4.05 ± 0.61^∗ log (Geq/mL)
absolute abundance of S. gordonii, mean ± SD log (Geq/mL) ([5]; substrate 1% (w/v)): 8.4 ± 0.11 log (Geq/mL)
absolute abundance of S. gordonii, mean ± SD log (Geq/mL) ([5]; substrate 1 M in PBS, n = 3): 9.31 ± 0.41 log (Geq/mL)
absolute abundance of S. mitis, mean ± SD log (Geq/mL) ([6]; substrate 1% (w/v)): 2.65 ± 0.00 log (Geq/mL)
absolute abundance of S. mitis, mean ± SD log (Geq/mL) ([6]; substrate 1 M in PBS, n = 3): 3.17 ± 0.75 log (Geq/mL)
absolute abundance of S. oralis, mean ± SD log (Geq/mL) ([7]; substrate 1% (w/v)): 6.6 ± 0.17 log (Geq/mL)
absolute abundance of S. oralis, mean ± SD log (Geq/mL) ([7]; substrate 1 M in PBS, n = 3): 7.45 ± 0.46 log (Geq/mL)
absolute abundance of S. sobrinus, mean ± SD log (Geq/mL) ([8]; substrate 1% (w/v)): 5.27 ± 0.24 log (Geq/mL)
absolute abundance of S. sobrinus, mean ± SD log (Geq/mL) ([8]; substrate 1 M in PBS, n = 3): 7.82 ± 0.11^∗ log (Geq/mL)
acetate level in biofilm supernatant, mean ± SD ([9]; substrate 1% (w/v)): 367 ± 33 mg/L
butyrate level in biofilm supernatant, mean ± SD ([9]; substrate 1% (w/v)): 2061 ± 121 mg/L
formate level in biofilm supernatant, mean ± SD ([9]; substrate 1% (w/v)): 3929 ± 253 mg/L
lactate level in biofilm supernatant, mean ± SD ([9]; substrate 1% (w/v)): -125 ± 0 mg/L
propionate level in biofilm supernatant, mean ± SD ([9]; substrate 1% (w/v)): 2140 ± 141 mg/L
acetate level in biofilm supernatant, mean ± SD ([9]; substrate 1 M): 881 ± 73^∗ mg/L
butyrate level in biofilm supernatant, mean ± SD ([9]; substrate 1 M): 0±0^∗ mg/L
formate level in biofilm supernatant, mean ± SD ([9]; substrate 1 M): 84 ± 9^∗ mg/L
lactate level in biofilm supernatant, mean ± SD ([9]; substrate 1 M): 3791 ± 169^∗ mg/L
propionate level in biofilm supernatant, mean ± SD ([9]; substrate 1 M): 1306 ± 175^∗ mg/L
acetate level in biofilm supernatant, mean ± SD [9, 13]: 881 ± 73 mg/L
butyrate level in biofilm supernatant, mean ± SD [9, 13]: 0 ± 0 mg/L
formate level in biofilm supernatant, mean ± SD [9, 13]: 84 ± 9 mg/L
lactate level in biofilm supernatant, mean ± SD [9, 13]: 3791 ± 169 mg/L
propionate level in biofilm supernatant, mean ± SD [9, 13]: 1306 ± 175 mg/L
fold change in aae expression, geometric mean (95% C.I.) [10, 14]: 1.36 (0.70-2.67) fold
fold change in apaH expression, geometric mean (95% C.I.) [10, 14]: 0.84 (0.29-2.49) fold
fold change in cdtB expression, geometric mean (95% C.I.) [10, 14]: 0.66 (0.21-2.03) fold
fold change in emaA expression, geometric mean (95% C.I.) [10, 14]: 0.34 (0.25-0.45)^∗ fold
fold change in flp expression, geometric mean (95% C.I.) [10, 14]: 0.81 (0.08-7.83) fold
fold change in ltxA expression, geometric mean (95% C.I.) [10, 14]: 0.04 (0.02-0.08)^∗ fold
fold change in omp29 expression, geometric mean (95% C.I.) [10, 14]: 0.81 (0.73-0.89) fold
fold change in omp100 expression, geometric mean (95% C.I.) [10, 14]: 0.34 (0.23-0.49)^∗ fold
fold change in orf859 expression, geometric mean (95% C.I.) [10, 14]: 0.97 (0.37-2.54) fold
fold change in pgA expression, geometric mean (95% C.I.) [10, 14]: 0.55 (0.41-0.74) fold
fold change in vapA expression, geometric mean (95% C.I.) [10, 14]: 0.90 (0.60-1.35) fold
fold change in vppA expression, geometric mean (95% C.I.) [10, 14]: 0.40 (0.14-1.15)^∗ fold
fold change in aae expression, geometric mean (95% C.I.) [10, 15]: 0.03 (0.01-0.22)^∗ fold
fold change in apaH expression, geometric mean (95% C.I.) [10, 15]: 0.04 (0.01-0.21)^∗ fold
fold change in cdtB expression, geometric mean (95% C.I.) [10, 15]: 0.02 (0.00-0.21)^∗ fold
fold change in emaA expression, geometric mean (95% C.I.) [10, 15]: 0.08 (0.06-0.11)^∗ fold
fold change in flp expression, geometric mean (95% C.I.) [10, 15]: 0.44 (0.10-1.94) fold
fold change in ltxA expression, geometric mean (95% C.I.) [10, 15]: 0.01 (0.00-0.08)^∗ fold
fold change in omp29 expression, geometric mean (95% C.I.) [10, 15]: 0.42 (0.33-0.52)^∗ fold
fold change in omp100 expression, geometric mean (95% C.I.) [10, 15]: 0.08 (0.04-0.15)^∗ fold
fold change in orf859 expression, geometric mean (95% C.I.) [10, 15]: 0.05 (0.00-0.79)^∗ fold
fold change in pgA expression, geometric mean (95% C.I.) [10, 15]: 4.30 (2.21-8.37)^∗ fold
fold change in vapA expression, geometric mean (95% C.I.) [10, 15]: 0.22 (0.13-0.36)^∗ fold
fold change in vppA expression, geometric mean (95% C.I.) [10, 15]: 0.17 (0.06-0.43)^∗ fold
fold change in pgA expression, geometric mean (95% C.I.) ([10]; substrate 1 M, relative to control = 1, 2^-ΔΔCt, n = 3, listed as α-D-lactose): 4.3 fold
fold change in fimA expression, geometric mean (95% C.I.) ([11]; substrate 1 % (w/v)): 1.48 (0.27-8.02) fold
fold change in kgp expression, geometric mean (95% C.I.) ([11]; substrate 1 % (w/v)): 1.95 (0.45-8.59) fold
fold change in partC expression, geometric mean (95% C.I.) ([11]; substrate 1 % (w/v)): 0.47 (0.07-3.04) fold
fold change in rgpA expression, geometric mean (95% C.I.) ([11]; substrate 1 % (w/v)): 1.49 (0.70-3.20) fold
fold change in fimA expression, geometric mean (95% C.I.) ([11]; substrate 1 M): 0.06 (0.00-1.08)^∗ fold
fold change in kgp expression, geometric mean (95% C.I.) ([11]; substrate 1 M): <LOD
fold change in partC expression, geometric mean (95% C.I.) ([11]; substrate 1 M): 0.03 (0.01-0.17)^∗ fold
fold change in rgpA expression, geometric mean (95% C.I.) ([11]; substrate 1 M): 0.01 (0.00-4.60)^∗ fold
fold change in ABC transp. perm. (ABC transporter permease) expression, geometric mean (95% C.I.) ([12]; substrate 1% (w/v)): 0.25 (0.08-0.78)^∗ fold
fold change in EF-G expression, geometric mean (95% C.I.) ([12]; substrate 1% (w/v)): 0.13 (0.03-0.51)^∗ fold
fold change in but. -coA transf. (butyrate-acetoacetate CoA-transferase) expression, geometric mean (95% C.I.) ([12]; substrate 1% (w/v)): 0.57 (0.40-0.83) fold
fold change in hemin receptor expression, geometric mean (95% C.I.) ([12]; substrate 1% (w/v)): 0.17 (0.03-0.94)^∗ fold
fold change in hemolysin expression, geometric mean (95% C.I.) ([12]; substrate 1% (w/v)): 1.00 (0.60-1.68) fold
fold change in ompA expression, geometric mean (95% C.I.) ([12]; substrate 1% (w/v)): 1.13 (0.58-2.19) fold
fold change in transposase expression, geometric mean (95% C.I.) ([12]; substrate 1% (w/v)): 1.26 (0.51-3.13) fold
fold change in ABC transp. perm. (ABC transporter permease) expression, geometric mean (95% C.I.) ([12]; substrate 1 M): 16.97 (5.93-48.61)^∗ fold
fold change in EF-G expression, geometric mean (95% C.I.) ([12]; substrate 1 M): 1.54 (0.94-2.53) fold
fold change in but. -coA transf. (butyrate-acetoacetate CoA-transferase) expression, geometric mean (95% C.I.) ([12]; substrate 1 M): 3.88 (0.87-17.43)* fold
fold change in hemin receptor expression, geometric mean (95% C.I.) ([12]; substrate 1 M): 36.87 (17.27-78.74)^∗ fold
fold change in hemolysin expression, geometric mean (95% C.I.) ([12]; substrate 1 M): 6.34 (1.36-29.47)^∗ fold
fold change in ompA expression, geometric mean (95% C.I.) ([12]; substrate 1 M): 1.26 (0.79-2.03) fold
fold change in transposase expression, geometric mean (95% C.I.) ([12]; substrate 1 M): 172.87 (147.10-203.20)^∗ fold
